Measurements as given in patent publication US9107879B1, “Methods of increasing the cytotoxicity of chemotherapeutic agents with multisubstrate inhibitors of histone, protein-lys, polyamine acetylation, and polyamine metabolism” (Vanderbilt University, priority 2010, dated 2015).

How the values were obtained:
p300 catalytic domain = molecular target: T1, p300 catalytic domain (Homo sapiens, UniProt Q09472); assay: fluorescent HAT assay kit (Active Motif), 96-well; assay type: biochemical
T1 construct: the catalytic domain of p300(965-1810); purchased Active Motif, Carlsbad, Calif
T1 sequence (Q09472 965-1810): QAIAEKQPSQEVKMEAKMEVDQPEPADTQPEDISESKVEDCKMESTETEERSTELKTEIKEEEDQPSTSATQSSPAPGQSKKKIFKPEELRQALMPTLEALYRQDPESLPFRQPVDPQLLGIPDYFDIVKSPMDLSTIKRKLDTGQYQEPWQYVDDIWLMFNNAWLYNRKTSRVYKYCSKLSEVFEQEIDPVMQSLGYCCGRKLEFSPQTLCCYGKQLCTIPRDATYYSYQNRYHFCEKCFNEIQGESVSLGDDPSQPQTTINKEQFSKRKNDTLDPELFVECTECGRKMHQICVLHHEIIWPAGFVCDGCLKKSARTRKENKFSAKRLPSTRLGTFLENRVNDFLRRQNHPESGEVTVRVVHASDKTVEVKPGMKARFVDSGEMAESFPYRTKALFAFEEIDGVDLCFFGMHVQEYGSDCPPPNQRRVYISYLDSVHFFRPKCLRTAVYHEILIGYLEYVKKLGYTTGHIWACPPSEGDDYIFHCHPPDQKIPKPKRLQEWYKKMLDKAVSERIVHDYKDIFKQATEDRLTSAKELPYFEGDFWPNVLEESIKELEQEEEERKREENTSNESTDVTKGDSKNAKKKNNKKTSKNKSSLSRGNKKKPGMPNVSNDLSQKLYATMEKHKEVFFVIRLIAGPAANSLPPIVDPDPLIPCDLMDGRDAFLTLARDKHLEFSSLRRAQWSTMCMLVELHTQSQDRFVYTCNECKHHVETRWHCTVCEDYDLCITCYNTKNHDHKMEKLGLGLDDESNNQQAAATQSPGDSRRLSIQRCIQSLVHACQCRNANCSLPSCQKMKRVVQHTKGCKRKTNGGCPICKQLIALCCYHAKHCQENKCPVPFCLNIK
Experimental: (A) Structures of compound 1a (spermidine CoA), and the acetylated side chain of a lysine residue of a polypeptide chain. (B) Inhibition of p300 acetylating activity as a function of 1a concentration. The catalytic domain of recombinant p300 (1284-1660) was assayed under steady state conditions using an N-terminal acetylated histone H4 peptide substrate, Ac-H4(1-19)-NH2. Closed circles represent experimental data points; plain line represents theoretical profile based on data reduction software (Prism) using a one site inhibition model. (C) In vitro assay of p300 activity using a 96-well assay kit (ActivMotif) and an H3 peptide substrate (5-23), according to manufacturer's instructions. Bars represent average of duplicates. […]
Reactions were set up in duplicate following the protocol supplied by the kit. […] Activity is measured in fluorescence units. […]
Assays were performed using the fluorescent HAT assay kit (Active Motif, Carlsbad, Calif.), an H3 peptide as substrate (residues 5-23), the p300 catalytic domain as enzyme, and 50 μM inhibitor in duplicate, according to the manufacturer's instructions. […] The reaction product, CoASH, was detected spectrophotometrically by reaction with 5,5′-dithiobis-2-nitrobenzoic acid (DTNB). Assays were carried out at 30° C. for 30 minutes, conditions which had previously been determined in kinetic assays to sufficient to achieve steady state.

H358 lung cancer cells = assay: [3H]-thymidine incorporation DNA synthesis assay; assay type: cell-based; conditions: Homo sapiens, NCI-H358; Example 1: 50 μM 1a (continuous) + 5 nM camptothecin (24 h); 48 hours post treatment; read-out: DNA synthesis rate, % of control rate
GT41F skin fibroblasts = assay: 96-well MTS viability assay; assay type: cell-based, human; conditions: 3 days; for sensitivity of normal fibroblasts compared with cancer cell lines: single agent
[1] = test system: normal GT41F human skin fibroblast cells; assay: [3H]-thymidine incorporation DNA synthesis assay; assay type: cell-based; conditions: 1a 50 μM; camptothecin 5 nM 18 hours
Source text: Cells were either labeled immediately before treatment (starting DNA synthesis rate), or subjected to the indicated treatments and then pulsed on successive days until day 4. DNA synthesis is represented as the percent of starting DNA synthesis rate.
The present inventors used a 96-well viability assays as described in Saadatmandi et al (Cancer Gene Therapy (2002) 9:930-9) to examine the effect of the spermidine-CoA inhibitor disclosed previously on DNA synthesis in normal GT41F human skin fibroblast cells, as well as its combined effect with camptothecin. GT41F cells were plated in 96-well plates at 3000 cells per well. […] Following the 6-hour labeling, cells were harvested and incorporation of [^3H]-thymidine was determined by scintillation counting.

[2] = test system: DU145 prostate cancer cells; assay type: cell-based; conditions: camptothecin 5 nM; 2a 10 μM
Experimental: Cells were plated in 96-well plates at 2000 cells per well and treated with the indicated doses of spd-3a. Cell viability was measured by the MTS assay 3 days later.

[3] = test system: DU 145 prostate cancer cells; assay: gamma-H2A.X immunofluorescence; assay type: cell-based; conditions: 8 hours, 5 nM camptothecin alone
Source text: The immuno fluorescence images on the left and right sides of the middle scheme illustrate this visually. […] Cells were fixed and stained with a rabbit antibody to the histone variant, γ-H2A.X, a marker for DNA double stranded breaks, followed by staining with a fluorescein (FITC)-tagged goat anti rabbit secondary antibody. Nuclei were stained with Hoescht 33345.

Compound: CC(C)(COP(=O)(O)OP(=O)(O)OC[C@H]1O[C@@H](n2cnc3c(N)ncnc32)[C@H](O)[C@@H]1OP(=O)(O)O)[C@@H](O)C(=O)NCCC(=O)NCCSCC(=O)NCCCNCCCCN [1a, spermidine[N1]-CoA]
- suppression of p300HAT-mediated incorporation of acetyl groups relative to control enzyme (p300 catalytic domain; 50 μM inhibitor, H3 peptide substrate, FIG. 1C): 88%
- activity at 50 µM (H358 lung cancer cells): ~10%

Compound: CC(=O)NCCSCC(=O)NCCCNCCCCN [3a]
- sensitivity of normal fibroblasts compared with cancer cell lines (GT41F skin fibroblasts): less sensitive
- cell viability retained (GT41F skin fibroblasts; spd-3a 1 μM): ~60%

Compound: CC[C@@]1(O)C(=O)OCc2c1cc1n(c2=O)Cc2cc3ccccc3nc2-1 [camptothecin]
- effect on incorporation of [3H]-thymidine, single agent [1]: virtually no effect
- effect on cell viability, single agent [2]: minimal effects
- DNA damage by γ-H2A.X staining, single agent [3]: minimal damage

Compound: CC(=O)NCCSCC(=O)NCCCNCCCCNCCCN [spm-3]
- p300 HAT inhibition in vitro (p300 catalytic domain; kit assay, 2a at 50 μM): HAT inhibitors
- sensitivity of normal fibroblasts compared with cancer cell lines (GT41F skin fibroblasts): sensitivity similar to that of H358 lung cancer cells
